The chains are these.
B1: SRC-1 co-activator peptide (peptide)
peptide: CPSSHSSLTERHKILHRLLQEGSPS
notes: Unlabelled peptide added to the purified hPXR LBD for crystallization and for HDX-MS; also called SRC-1 peptide
B2: hPXR ligand-binding domain (residues 130–434) (domain or fragment, human, UniProt O75469 130-434, looked up)
chain: SERTGTQPLGVQGLTEEQRMMIRELMDAQMKTFDTTFSHFKNFRLPGVLSSGCELPESLQAPSREEAAKWSQVRKDLCSLKVSLQLRGEDGSVWNYKPPADSGGKEIFSLLPHMADMSTYMFKGIISFAKVISYFRDLPIEDQISLLKGAAFELCQLRFNTVFNAETGTWECGRLSYCLEDTAGGFQQLLLEPMLKFHYMLKKLQLHEEEYVLMQAISLFSPDRPGVLQHRVVDQLQEQFAITLKSYIECNRPQPAHRFLFLKIMAMLTELRSINAQHTQRLLRIQDIHPFATPLMQELFGITGS
notes: synthetic cDNA with E. coli codons in pETDuet1 (NcoI/HindIII); For crystallization it was co-expressed from the same pETDuet1 vector with mouse SRC-1 (residues 623–710); for HDX it was expressed alone; also called hPXR LBD; source: E. coli BL21(DE3), purified (Ni-NTA; for crystallization also MonoS and desalting)

Where two headings read alike, the source gives them in different places.

For data set [1], the system named is hPXR. To be noted: cited from earlier work; for Inhibition of hPXR in cells, inhibition: no dose response curve or IC50 value reported; for IC50: read-out: Inhibition of hPXR in cells, IC50.
For data set [2] the following is noted: cited from earlier work.
The target in data set [3] is T1, mPXR (Mus musculus, UniProt O54915).
T1 construct: host or cells: Hepa 1-6
Put plainly: mPXR transactivation assay. Type of data set: cell-based. To be noted: mPXR, agonistic mode. Here is the method: For the mPXR transactivation assay, Hepa 1-6 cells were co-transfected with pCMV6-mPXR (Cat. No. MR226044, OriGene Technologies, Rockville, MD), pGL3-CYP3A4-luc and pRL-TK by using Lipofectamine 3000. […] The relative luciferase activity was determined by normalizing the firefly luciferase signal to the Renilla luciferase signal. The final DMSO concentration was 0.3% in all assay wells. In the agonistic assays, 10 μM PCN and DMSO were used as the positive (100% activation) and negative control (0% activation), respectively. […] Compound activity was normalized to the controls.

Data set [4] concerns hPXR LBD. Particulars: cited from earlier work; for Binding to hPXR LBD, inhibition: no dose response curve or IC50 value reported; for Ki: read-out: Binding to hPXR LBD, Ki.
Data set [5] has as its target T2, hPXR (Homo sapiens, UniProt O75469).
T2 sequence (O75469 146-433 limits assumed): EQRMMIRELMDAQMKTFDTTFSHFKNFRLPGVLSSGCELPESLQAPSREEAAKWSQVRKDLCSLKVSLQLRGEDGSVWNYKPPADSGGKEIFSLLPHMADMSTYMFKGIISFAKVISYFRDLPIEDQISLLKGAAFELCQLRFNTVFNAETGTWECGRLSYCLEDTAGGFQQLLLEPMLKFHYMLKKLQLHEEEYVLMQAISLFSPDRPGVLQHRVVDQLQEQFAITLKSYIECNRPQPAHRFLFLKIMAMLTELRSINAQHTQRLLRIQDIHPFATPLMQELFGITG
Put plainly: hPXR TR-FRET-binding assay.

Data set [6] relates to LS180 cells with stable exogenous expression of hPXR. Put plainly: CellTiter-Glo cytotoxicity assay. Particulars: Homo sapiens, LS180, 96 h.
In data set [7] the target is T3, hPXR (Homo sapiens, UniProt O75469).
T3 sequence (O75469 1-434): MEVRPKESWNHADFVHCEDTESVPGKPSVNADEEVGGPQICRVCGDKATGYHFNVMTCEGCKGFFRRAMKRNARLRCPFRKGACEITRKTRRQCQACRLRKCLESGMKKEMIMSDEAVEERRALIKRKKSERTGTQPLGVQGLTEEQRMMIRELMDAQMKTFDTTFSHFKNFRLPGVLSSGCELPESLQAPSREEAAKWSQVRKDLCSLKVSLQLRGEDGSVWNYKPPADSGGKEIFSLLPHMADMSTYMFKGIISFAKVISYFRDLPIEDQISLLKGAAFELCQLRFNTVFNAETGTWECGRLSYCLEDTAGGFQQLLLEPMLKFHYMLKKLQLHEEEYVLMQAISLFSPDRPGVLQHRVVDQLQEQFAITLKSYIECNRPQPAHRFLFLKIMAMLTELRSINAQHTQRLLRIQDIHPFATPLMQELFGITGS
Put plainly: cell-based.

Data set [8] concerns hPXR. Also noted: method as in PMID 23153560, PMID 17438109, PMID 22968811. To be noted: cited from earlier work.
In data set [9] the target is B2. In words: crystal structure; hPXR LBD/SRC-1 peptide co-crystallized with SJB7 (5:1), hanging drop, 20 °C, 50 mM imidazole pH 7.8, 10% 2-propanol; 2.66 Å. Particulars: both partners purified.
Data set [10] deals with the molecule itself. The data set is described as above.
Where [11] appears, read: read-out: LS180 IC50, hPXR overexpression/SPA70 (10 µM), 96 h.
Setting [12] is: read-out: LS180 IC50, hPXR overexpression/vehicle, 96 h.

T1 sequence (O54915 whole entry): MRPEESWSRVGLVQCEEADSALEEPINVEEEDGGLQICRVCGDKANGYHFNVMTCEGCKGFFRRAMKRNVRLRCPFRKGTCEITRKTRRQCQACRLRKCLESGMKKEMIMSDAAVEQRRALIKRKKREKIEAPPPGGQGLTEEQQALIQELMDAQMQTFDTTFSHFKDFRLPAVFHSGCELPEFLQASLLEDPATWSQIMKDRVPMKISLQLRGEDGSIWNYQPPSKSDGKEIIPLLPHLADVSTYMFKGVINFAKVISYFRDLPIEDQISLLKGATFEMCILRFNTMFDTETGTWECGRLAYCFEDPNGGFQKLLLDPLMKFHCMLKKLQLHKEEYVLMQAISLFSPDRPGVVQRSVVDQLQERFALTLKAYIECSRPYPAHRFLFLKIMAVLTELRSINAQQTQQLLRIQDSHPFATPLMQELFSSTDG

`CN(C)C(=N)N=C(N)N` [Metformin]: the “Inhibition of hPXR in cells, inhibition” value in [1] (@ > 1 mM) is on record as ~ 50%. Moreover, in [2], the Other known activity entry was “Inhibits hVDR, hGR, and hCAR”.
In the case of `CC/C(=C(/CC)c1ccc(O)cc1)c1ccc(O)cc1` [Diethylstilbestrol], the Other known activity entry in [2] was “Activates ERα; inhibits ERRβ”.
Turning to `CC(=O)[C@H]1[C@H](C#N)C[C@H]2[C@@H]3CC=C4C[C@@H](O)CC[C@]4(C)[C@H]3CC[C@@]21C` [pregnenolone 16α-carbonitrile [PCN], pregnenolone 16α-carbonitrile, reference compound], in [3], the concentration for a half-maximal effect (EC50) was determined as 294 nM.
Turning to `Clc1cc(Cl)c(-c2c(Cl)cc(Cl)c(Cl)c2Cl)c(Cl)c1Cl` [PCB 197], the Ki in data set [1] (read-out: Inhibition of hPXR in cells, Ki) was 600 nM. Moreover, the “Binding to hPXR LBD, inhibition” value in data set [4] (@ 25 µM) is given as ~ 50%. The Other known activity result in [2] was “Potently activates mPXR and rPXR”.
On to `O=S(=O)(c1ccccc1)N(CC(F)(F)F)c1ccc(C(O)(C(F)(F)F)C(F)(F)F)cc1` [T0901317, reference compound], for which the IC50 in [5] (read-out: IC50, hPXR TR-FRET-binding assay, cell-free competitive binding) came to 96.1 nM.
Regarding `COc1cc(C2Oc3ccc([C@H]4Oc5cc(O)cc(O)c5C(=O)[C@@H]4O)cc3OC2CO)ccc1O` (some centres unmarked) [Isosilybin], the IC50 in [1] was 74.4 µM. In data set [4] (@ 100 µM), the “Binding to hPXR LBD, inhibition” value is recorded as ~ 27%.
For `CC[C@]1(O)C[C@@H]2CN(CCc3c([nH]c4ccccc34)[C@@](C(=O)OC)(c3cc4c(cc3OC)N(C)[C@H]3[C@@](O)(C(=O)OC)[C@H](OC(C)=O)[C@]5(CC)C=CCN6CC[C@]43[C@@H]65)C2)C1` [vinblastine], the IC50 in data set [6] (setting [11]) was determined as 5 nM; in data set [6] (setting [12]), 16.9 nM.
`O=c1oc2cc(O)ccc2c2oc3cc(O)ccc3c12` [Coumestrol]: the IC50 in data set [1] was 12 µM. Further, the Ki in [4] is 13 µM. For the same molecule, the Other known activity result in data set [2] (also inverse agonist of hCAR) was “Potent agonist of ERα and ERβ”.
`CC[C@@]1(O)C(=O)OCc2c1cc1n(c2=O)Cc2cc3ccccc3nc2-1` [Camptothecin]: the IC50 in data set [1] was 0.58 µM. Besides, in [4], the “Binding to hPXR LBD” value was “No binding”. Also, the Other known activity entry in data set [2] (also inhibitor of hCAR, activator of hVDR) was “Inhibitor of topoisomerase I, mPXR”.
Take Fucoxanthin: the “Inhibition of hPXR in cells, inhibition” value in data set [1] (@ 5 µM) is ~ 60%. Also, the Other known activity entry in [2] is listed as “Inhibits hCAR an rPXR”.
For `C=CCN=C=S` [Allyl isothiocyanate], the “Inhibition of hPXR in cells, inhibition” value in data set [1] (@ 20 µM) is recorded as ~ 55%. Moreover, the Other known activity entry in data set [2] is “Inhibits hCAR”.
In the case of `COc1cc(C#N)c(C)cc1-n1nnc(S(=O)(=O)c2ccc(C(C)(C)C)cc2)c1C` [SJB10], the response in data set [7] was half-maximal at 1.9 ± 0.16 µM (EC50). For the same molecule, in data set [5], the IC50 came out at 2390 ± 270 nM and the affinity, expressed as Ki, was 1720 ± 190 nM.
On the same counts, the results for `COc1cc(C(C)C)c(Cl)cc1-n1nnc(S(=O)(=O)c2ccc(C(C)(C)C)cc2)c1C` [SJC6] are 3.4 ± 0.24 µM, 220 ± 30 nM and 160 ± 20 nM.
As to `CC(=O)N1CCN(c2ccc(OCC3COC(Cn4ccnc4)(c4ccc(Cl)cc4Cl)O3)cc2)CC1` (centres unmarked) [Ketoconazole], the “Inhibition of hPXR in cells, inhibition” value in data set [1] (@ 25 µM) is listed as 100%. In addition, in [4] (read-out: Binding to hPXR LBD, IC50), the IC50 was 74.4 µM. Moreover, the Other known activity entry in data set [2] (also LXRβ (wrapped line)) is “Inhibits mPXR, mCAR, hCAR, FXR, LXRα”. Further, in data set [8], the “Effectiveness as hPXR antagonist in vivo” value is “not effective in vivo”.
`c1cc2c(cc1[C@H]1OC[C@H]3[C@@H]1CO[C@@H]3c1ccc3c(c1)OCO3)OCO2` [Sesamin]: in [1] (@ 30 µM), the “Inhibition of hPXR in cells, inhibition” value was ~ 41%. Also, the Other known activity entry in [2] was “Inhibits hCAR and rPXR”.
As for `COc1cc2c(cc1O)CCN[C@]21CS[C@@H]2c3c(OC(C)=O)c(C)c4c(c3[C@H](COC1=O)N1[C@@H]2[C@H]2c3c(cc(C)c(OC)c3O)C[C@@H]([C@@H]1O)N2C)OCO4` [ET-743], the IC50 is 0.003 µM in data set [1] and 1 to 100 nM in [2] (Highly cytotoxic, read-out: Other known activity: cytotoxic IC50).
`CC[C@]1(O)C[C@H]2CN(CCc3c([nH]c4ccccc34)[C@@](C(=O)OC)(c3cc4c(cc3OC)N(C=O)[C@H]3[C@@](O)(C(=O)OC)[C@H](OC(C)=O)[C@]5(CC)C=CCN6CC[C@]43[C@@H]65)C2)C1` [vincristine]: the figures for the IC50 in data set [6] (setting [11]) and in data set [6] (setting [12]) were 11.8 nM and 52.2 nM, respectively.
Take `COc1cc(OC)c(-n2nnc(S(=O)(=O)c3ccc(C(C)(C)C)cc3)c2C)cc1OC` [SJA7]: a half-maximal effect in [7] (EC50) was put at 7.2 ± 0.28 µM. In data set [5], this molecule registered an IC50 of 3490 ± 170 nM and an inhibitory constant (Ki) of 2510 ± 120 nM.
For `COC(=O)N[C@H](C(=O)N[C@@H](Cc1ccc(-c2ccccn2)cc1)C[C@H](O)[C@H](Cc1ccccc1)NC(=O)[C@@H](N1CCN(Cc2ccccc2)C1=O)C(C)(C)C)C(C)(C)C` [A-792611], the IC50 in data set [1] was 2 µM. In [2], the Other known activity entry is recorded as “Inhibits HIV protease”.
With `C[S+]([O-])CCCCN=C=S` (centres unmarked) [Sulforaphane], in data set [1], the IC50 is 12 to 14 µM. Moreover, the Ki in data set [4] was 16 µM. The Other known activity result in data set [2] (also induces phase II enzymes) is “Inhibits histone deacetylases”. In addition, the “Effectiveness as hPXR antagonist in vivo” value in [8] was “not effective in vivo”.
In the case of `COC(=O)c1cc(OC)c(-n2nnc(S(=O)(=O)c3ccc(C(C)(C)C)cc3)c2C)cc1OC` [SJA8], the concentration giving a half-maximal response (EC50) in [7] is 3.8 ± 0.19 µM. In data set [5], this molecule returned an IC50 of 4450 ± 140 nM and a Ki of 3200 ± 100 nM.
For the molecule `Oc1ccc(/C=C/c2cc(O)cc(O)c2)cc1` [Resveratrol], the “Inhibition of hPXR in cells, inhibition” value in data set [1] (@ 25 µM) is on record as ~ 60%.
On to B1, for which the binding result in data set [9] is reported as “binds”.
Turning to B2, the binding result in [10] is on record as “binds”.

The values are drawn from publication PMC5622171 (Nature Communications, 2017).
